Measurements reported in PubChem BioAssay AID1963839 (Molecular Pharmacology Branch, DTP, NCI, 2024).

System: 817829-284-R-J1-PDC complex spheroid viability
Test: Anticancer human tumor 817829-284-R-J1-PDC patient-derived colon adenocarcinoma cell line growth inhibition [POLQ]
Conditions: for IC50: curve of first compound; for viability, T/C: stronger effect = lower value
Summary of the method: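 Complex spheroid viability model combining PDC tumour cells with endothelial (HUVEC) and MSC stromal cells. Novobiocin, ART-558 or RP6685 were tested singly and in combination with standard and investigational anticancer drugs. Each was titrated in half-log steps from near clinical Cmax, or from 10 microM where Cmax was unknown.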

[1] = second compound 0.0316 µM, first compound 0.00316 µM
[2] = second compound 0.0316 µM, first compound 0.01 µM
[3] = second compound 0.0316 µM, first compound 0.0316 µM
[4] = second compound 0.0316 µM, first compound 0.1 µM
[5] = second compound 0.0316 µM, first compound 0.316 µM
[6] = second compound 0.0316 µM, first compound 1 µM
[7] = second compound 0.1 µM, first compound 0.00316 µM
[8] = second compound 0.1 µM, first compound 0.01 µM
[9] = second compound 0.1 µM, first compound 0.0316 µM
[10] = second compound 0.1 µM, first compound 0.1 µM
[11] = second compound 0.1 µM, first compound 0.316 µM
[12] = second compound 0.1 µM, first compound 1 µM
[13] = second compound 0.316 µM, first compound 0.00316 µM
[14] = second compound 0.316 µM, first compound 0.01 µM
[15] = second compound 0.316 µM, first compound 0.0316 µM
[16] = second compound 0.316 µM, first compound 0.1 µM
[17] = second compound 0.316 µM, first compound 0.316 µM
[18] = second compound 0.316 µM, first compound 1 µM
[19] = second compound 1 µM, first compound 0.00316 µM
[20] = second compound 1 µM, first compound 0.01 µM
[21] = second compound 1 µM, first compound 0.0316 µM
[22] = second compound 1 µM, first compound 0.1 µM
[23] = second compound 1 µM, first compound 0.316 µM
[24] = second compound 1 µM, first compound 1 µM
[25] = second compound 3.16 µM, first compound 0.00316 µM
[26] = second compound 3.16 µM, first compound 0.01 µM
[27] = second compound 3.16 µM, first compound 0.0316 µM
[28] = second compound 3.16 µM, first compound 0.1 µM
[29] = second compound 3.16 µM, first compound 0.316 µM
[30] = second compound 3.16 µM, first compound 1 µM
[31] = second compound 10 µM, first compound 0.00316 µM
[32] = second compound 10 µM, first compound 0.01 µM
[33] = second compound 10 µM, first compound 0.0316 µM
[34] = second compound 10 µM, first compound 0.1 µM
[35] = second compound 10 µM, first compound 0.316 µM
[36] = second compound 10 µM, first compound 1 µM
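Note: spheroids exposed to compounds for 7 days.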
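Throughout, for viability, T/C: 100% = DMSO vehicle-treated spheroids.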

## C=CCn1c(=O)c2cnc(Nc3ccc(N4CCN(C)CC4)cc3)nc2n1-c1cccc(C(C)(C)O)n1 + COC1C(OC(N)=O)C(O)C(Oc2ccc3c(O)c(NC(=O)c4ccc(O)c(CC=C(C)C)c4)c(=O)oc3c2C)OC1(C)C
Second compound 0.0316 µM
  IC50: 161 nM
Second compound 0.1 µM
  IC50: 144 nM
Second compound 0.316 µM
  IC50: 176 nM
Second compound 1 µM
  IC50: 190 nM
Second compound 3.16 µM
  IC50: 176 nM
Second compound 10 µM
  IC50: 133 nM
[1]
  viability, T/C: 93%
[2]
  viability, T/C: 74.8%
[3]
  viability, T/C: 91.3%
[4]
  viability, T/C: 58%
[5]
  viability, T/C: 33.6%
[6]
  viability, T/C: 7.07%
[7]
  viability, T/C: 107%
[8]
  viability, T/C: 91.4%
[9]
  viability, T/C: 87.2%
[10]
  viability, T/C: 55.5%
[11]
  viability, T/C: 32.3%
[12]
  viability, T/C: 6.47%
[13]
  viability, T/C: 100%
[14]
  viability, T/C: 96.8%
[15]
  viability, T/C: 96.6%
[16]
  viability, T/C: 72%
[17]
  viability, T/C: 26.7%
[18]
  viability, T/C: 6%
[19]
  viability, T/C: 82.8%
[20]
  viability, T/C: 95.9%
[21]
  viability, T/C: 110%
[22]
  viability, T/C: 70.6%
[23]
  viability, T/C: 32.2%
[24]
  viability, T/C: 7.21%
[25]
  viability, T/C: 109%
[26]
  viability, T/C: 107%
[27]
  viability, T/C: 83%
[28]
  viability, T/C: 69.7%
[29]
  viability, T/C: 32.2%
[30]
  viability, T/C: 7.29%
[31]
  viability, T/C: 67.5%
[32]
  viability, T/C: 96.1%
[33]
  viability, T/C: 69.7%
[34]
  viability, T/C: 55.2%
[35]
  viability, T/C: 30.8%
[36]
  viability, T/C: 8.11%

## CC[C@@]1(O)C(=O)OCc2c1cc1n(c2=O)Cc2cc3c(CN(C)C)c(O)ccc3nc2-1 + COC1C(OC(N)=O)C(O)C(Oc2ccc3c(O)c(NC(=O)c4ccc(O)c(CC=C(C)C)c4)c(=O)oc3c2C)OC1(C)C
Second compound 0.0316 µM
  IC50: 4.86 nM
Second compound 0.1 µM
  IC50: 6.13 nM
Second compound 0.316 µM
  IC50: 5.58 nM
Second compound 1 µM
  IC50: 7.53 nM
Second compound 3.16 µM
  IC50: 7.95 nM
Second compound 10 µM
  IC50: 5.89 nM
Second compound 0.0316 µM, first compound 0.000316 µM
  viability, T/C: 80.6%
Second compound 0.0316 µM, first compound 0.001 µM
  viability, T/C: 87.4%
[1]
  viability, T/C: 58.6%
[2]
  viability, T/C: 32.5%
[3]
  viability, T/C: 21.7%
[4]
  viability, T/C: 16.1%
Second compound 0.1 µM, first compound 0.000316 µM
  viability, T/C: 69.7%
Second compound 0.1 µM, first compound 0.001 µM
  viability, T/C: 81.7%
[7]
  viability, T/C: 76.2%
[8]
  viability, T/C: 30.9%
[9]
  viability, T/C: 21.4%
[10]
  viability, T/C: 15.7%
Second compound 0.316 µM, first compound 0.000316 µM
  viability, T/C: 74.4%
Second compound 0.316 µM, first compound 0.001 µM
  viability, T/C: 78.8%
[13]
  viability, T/C: 57.8%
[14]
  viability, T/C: 40.8%
[15]
  viability, T/C: 20.1%
[16]
  viability, T/C: 17.3%
Second compound 1 µM, first compound 0.000316 µM
  viability, T/C: 83.2%
Second compound 1 µM, first compound 0.001 µM
  viability, T/C: 106%
[19]
  viability, T/C: 84.1%
[20]
  viability, T/C: 38.6%
[21]
  viability, T/C: 20.2%
[22]
  viability, T/C: 16.2%
Second compound 3.16 µM, first compound 0.000316 µM
  viability, T/C: 106%
Second compound 3.16 µM, first compound 0.001 µM
  viability, T/C: 78.2%
[25]
  viability, T/C: 99.8%
[26]
  viability, T/C: 38.8%
[27]
  viability, T/C: 20.5%
[28]
  viability, T/C: 18.4%
Second compound 10 µM, first compound 0.000316 µM
  viability, T/C: 97.6%
Second compound 10 µM, first compound 0.001 µM
  viability, T/C: 87.6%
[31]
  viability, T/C: 69.3%
[32]
  viability, T/C: 34%
[33]
  viability, T/C: 20.6%
[34]
  viability, T/C: 19.1%

## CCc1c2c(nc3ccc(O)cc13)-c1cc3c(c(=O)n1C2)COC(=O)[C@]3(O)CC + COC1C(OC(N)=O)C(O)C(Oc2ccc3c(O)c(NC(=O)c4ccc(O)c(CC=C(C)C)c4)c(=O)oc3c2C)OC1(C)C
Second compound 0.0316 µM
  IC50: < 3.16 nM
Second compound 0.1 µM
  IC50: < 3.16 nM
Second compound 0.316 µM
  IC50: < 3.16 nM
Second compound 1 µM
  IC50: < 3.16 nM
Second compound 3.16 µM
  IC50: < 3.16 nM
Second compound 10 µM
  IC50: < 3.16 nM
[1]
  viability, T/C: 25.5%
[2]
  viability, T/C: 17.6%
[3]
  viability, T/C: 10.6%
[4]
  viability, T/C: 8.89%
[5]
  viability, T/C: 5.32%
[6]
  viability, T/C: 3.77%
[7]
  viability, T/C: 17.9%
[8]
  viability, T/C: 16.7%
[9]
  viability, T/C: 11%
[10]
  viability, T/C: 7%
[11]
  viability, T/C: 5.78%
[12]
  viability, T/C: 3%
[13]
  viability, T/C: 21.2%
[14]
  viability, T/C: 15%
[15]
  viability, T/C: 11.7%
[16]
  viability, T/C: 8.14%
[17]
  viability, T/C: 5.95%
[18]
  viability, T/C: 2.76%
[19]
  viability, T/C: 18.1%
[20]
  viability, T/C: 16.1%
[21]
  viability, T/C: 11.3%
[22]
  viability, T/C: 7.95%
[23]
  viability, T/C: 8.47%
[24]
  viability, T/C: 3.04%
[25]
  viability, T/C: 14.1%
[26]
  viability, T/C: 16.3%
[27]
  viability, T/C: 11%
[28]
  viability, T/C: 7.05%
[29]
  viability, T/C: 4.82%
[30]
  viability, T/C: 3.32%
[31]
  viability, T/C: 23.3%
[32]
  viability, T/C: 14.8%
[33]
  viability, T/C: 12.8%
[34]
  viability, T/C: 6.77%
[35]
  viability, T/C: 5.07%
[36]
  viability, T/C: 2.89%

## Nc1ccn(C2OC(CO)C(O)C2(F)F)c(=O)n1 (stereo not drawn) + COC1C(OC(N)=O)C(O)C(Oc2ccc3c(O)c(NC(=O)c4ccc(O)c(CC=C(C)C)c4)c(=O)oc3c2C)OC1(C)C
Second compound 0.0316 µM
  IC50: < 31.6 nM
Second compound 0.1 µM
  IC50: < 31.6 nM
Second compound 0.316 µM
  IC50: < 31.6 nM
Second compound 1 µM
  IC50: < 31.6 nM
Second compound 3.16 µM
  IC50: < 31.6 nM
Second compound 10 µM
  IC50: < 31.6 nM
[3]
  viability, T/C: 5.87%
[4]
  viability, T/C: 4.61%
[5]
  viability, T/C: 5.48%
[6]
  viability, T/C: 4.5%
Second compound 0.0316 µM, first compound 3.16 µM
  viability, T/C: 3.65%
Second compound 0.0316 µM, first compound 10 µM
  viability, T/C: 3.38%
[9]
  viability, T/C: 5.96%
[10]
  viability, T/C: 4.96%
[11]
  viability, T/C: 5.53%
[12]
  viability, T/C: 4.76%
Second compound 0.1 µM, first compound 3.16 µM
  viability, T/C: 3.8%
Second compound 0.1 µM, first compound 10 µM
  viability, T/C: 3.28%
[15]
  viability, T/C: 5.1%
[16]
  viability, T/C: 4.62%
[17]
  viability, T/C: 5.85%
[18]
  viability, T/C: 5.46%
Second compound 0.316 µM, first compound 3.16 µM
  viability, T/C: 3.59%
Second compound 0.316 µM, first compound 10 µM
  viability, T/C: 2.73%
[21]
  viability, T/C: 4.99%
[22]
  viability, T/C: 4.37%
[23]
  viability, T/C: 5.56%
[24]
  viability, T/C: 4.58%
Second compound 1 µM, first compound 3.16 µM
  viability, T/C: 4.04%
Second compound 1 µM, first compound 10 µM
  viability, T/C: 3.14%
[27]
  viability, T/C: 4.75%
[28]
  viability, T/C: 4.78%
[29]
  viability, T/C: 5.45%
[30]
  viability, T/C: 4.57%
Second compound 3.16 µM, first compound 3.16 µM
  viability, T/C: 3.73%
Second compound 3.16 µM, first compound 10 µM
  viability, T/C: 3.65%
[33]
  viability, T/C: 6.16%
[34]
  viability, T/C: 4.98%
[35]
  viability, T/C: 5.43%
[36]
  viability, T/C: 5.17%
Second compound 10 µM, first compound 3.16 µM
  viability, T/C: 4.49%
Second compound 10 µM, first compound 10 µM
  viability, T/C: 3.17%
